Source: patent US9657073B2, “Inhibitors of Bcl-2” (Case Western Reserve University, priority 2010, dated 2017)

Experiments:
Bcl-2-IP3R interaction = biological target: T1, Bcl-2-IP3R interaction (Homo sapiens, UniProt P10415); assay: Co-immunoprecipitation assay; format: binding; conditions: 200 μM peptide, lysate of WEHI7.2 cells overexpressing wild type Bcl-2
T1 construct: expressed in transfected cells; host or cells: WEHI7.2 (murine T cell lymphoma); IP3R endogenous
Description: One hundred million WEHI7.2 cells overexpressing wild type Bcl-2 were washed twice with PBS and then lysed on ice for 30 min in 1 ml CHAPS buffer. The supernatant was prepared by centrifugation for 15 min at 20,000 g at 4° C. The supernatant (1 ml) was mixed with 100 μl 50% protein G in Tris 50 mM pH 7.5 buffer and rotated at 4 C for 2 hrs. After removing the beads, the supernatant was incubated with 200 μM peptide (Scr or IDPDD/AA, or without peptide addition, for 2 hrs at 4° C. Then hamster anti-human Bcl-2 antibody was added (final dilution 1:250) and the supernatant was rotated for 16 hrs at 4 C, followed by rotation in the presence of 50 μl protein G (50% beads) for 2 hours at 4 C. The beads were washed six times with CHAPS buffer and boiled for 5 min in SDS sample buffer followed by resolution of proteins by SDS-PAGE and analysis by western blotting for the IP3R using anti-IP3R antibody (BD Biosciences (Cat #610313) at 1:2,000 dilution and for Bcl-2 as described above.

[1] = system: IP3R-mediated Ca2+ release inhibited by BH4-Bcl-2; assay: Unidirectional 45Ca2+-flux assay in permeabilized MEF cells; format: cell-based; conditions: 40 μM IDPDD/AA, 40 μM BH4-Bcl-2 peptide, 3 μM IP3, FIG. 7
Description: Twelve-well clusters containing MEF cells were fixed on a thermostated plate at 30° C. on a mechanical shaker. The culture medium was aspirated, and the cells were permeabilized by incubating them for 10 min in a solution containing 120 mM KCl, 30 mM imidazole-HCl (pH 6.8), 2 mM MgCl2, 1 mM ATP, 1 mM EGTA and 20 μg/ml saponin. The non-mitochondrial Ca^2+ stores were then loaded for 45 min in 120 mM KCl, 30 mM imidazole-HCl (pH 6.8), 5 mM MgCl2, 5 mM ATP, 0.44 mM EGTA, 10 mM NaN3 and 150 nM free ^45Ca^2+ (28 μCi/ml). Then, 1 ml of efflux medium containing 120 mM KCl, 30 mM imidazole-HCl (pH 6.8) and 1 mM EGTA was added and replaced every 2 min IP3 (3 μM) was added for 2 min after 10 min of efflux. BH4-Bcl2 peptide (40 μM), in the presence or not of IDPDD/AA peptide (40 μM), was added from 4 min before IP3 to 2 min after IP3. At the end of the experiment, all 45Ca^2+ remaining in the stores was released by incubation with 1 ml of a 2% (w/v) sodium dodecyl sulfate solution for 30 min Ca^2+ release was plotted as fractional loss (%/2 min) as a function of time, as previously described.

Bcl-2 = Bcl-2 (Homo sapiens, UniProt P10415); assay: Biotin-streptavidin pulldown assay; format: binding; conditions: 200 μM biotin-peptide, lysate of WEHI7.2 cells overexpressing wild type Bcl-2
Description: WEHI7.2 cells overexpressing wild type Bcl-2 were washed twice with PBS and incubated on ice for 30 min in 400 ul CHAPS lysis buffer (50 mM Tris-HCL pH 7.5, 100 mM NaCL, 2 mM EDTA, 1% CHAPS, 50 mM NaF, 1 mM Na3VO4, protease inhibitor cocktail, PhosSTOP). Cell lysates were centrifuged for 15 min at 20,000 g at 4 C and the supernatant (protein concentration 5 mg/ml) was continuously rotated with 200 μM biotin-Scr or biotin-IDPDD/AA, or without peptide, at 4 C for 16 hr. Streptavidin Sepharose beads ([…]) (Pierce Pull-Down Biotinylated Protein:Protein Interaction Kit, Thermo, Cat #21115) were washed three times with tris buffered saline (25 mM Tris.HCL, 0.15M NaCl, pH 7) and then added to 400 μl cell lysate, followed by rotation for 2 hours at 4 C. After this, the beads were washed four times with tris buffered saline, centrifuging for 30-60 second each time. The beads were then incubated for 3-5 min at room temperature with 50 μl elution buffer provided with the Pierce pulldown kit (above) and centrifuged at 1,250×g for 30-60 seconds. The supernatant was boiled in SDS-PAGE sample buffer for 5 min and western blotting for Bcl-2 was performed as described above.

multiple myeloma cells = assay: Killing of multiple myeloma cells; format: cell-based; conditions: FIG. 17
wild type DT40 cells = assay: Single cell digital imaging of intracellular Ca2+ (Fura-2); format: cell-based; conditions: 5 μM peptide, DT40 expressing all three IP3R isoforms, FIG. 8B
Description: (§1) Methods of Ca^2+ imaging, described in detail previously, were employed here with only minor modification. Briefly, cells adhered to poly-L-lysine-coated coverslips (35-mm coverslip dishes, MatTek Corp., Ashland, Mass.) were loaded with 1 μM Fura-2 AM for 45 min at 25° C. in extracellular buffer (ECB) (130 mM NaCl, 5 mM KCl, 1.5 mM CaCl2, 1 mM MgCl2, 25 mM Hepes, pH 7.5, 1 mg/ml BSA, and 5 mM glucose). The buffer was replaced with fresh ECB and the incubation continued for […] at 25° C. to permit de-esterification. Culture dishes were mounted on the non-heated stage of an inverted microscope (Olympus CKX41) equipped with a 20× Fluor objective. Excitation light was alternated between 340 and 380 nm by a filter wheel (Sutter Instrument Co.), with 0.8 sec and 0.2 sec exposure times respectively, and emitted light was filtered at >510 nm and collected with an intensified charge-coupled device camera (Cooke 12 bit VGA). The video signal was digitized using InCyt Im2 software (Intracellular Imaging) and subsequently processed using Microsoft Excel. To determine Rmin cells were perfused with ECB deficient in Ca^2+ and supplemented with 4 mM EGTA and 10 μM ionomycin. Rmax was obtained by perfusing cells with ECB supplemented with 4 mM CaCl2 and 10 μM ionomycin. […] In most experiments peptides were fused with the cell penetrating peptide of HIV TAT to facilitate uptake by cells. […]

[2] = system: triple IP3R knockout DT40 cells; assay: as above; format: cell-based; conditions: 5 μM peptide, TKO DT40, FIG. 8C
Description: as §1

primary CLL cells [3] = assay: Apoptosis and cell death assays (trypan blue, propidium iodide, Hoechst nuclear morphology, Annexin V); format: cell-based, human; conditions: 24 hr
From the text: Lymphocytes were freshly separated from heparinized peripheral blood obtained from normal adult volunteers or adult patients with chronic lymphocytic leukemia (CLL) meeting standard diagnostic guidelines. […] We conformed to all guidelines and regulations in accordance with Internal Review Board protocols ICC2902/11-02-28 (Case Western Reserve University Cancer Center/University Hospitals of Cleveland Ireland Cancer Center). Cells were separated by centrifugation through Ficoll-Hypaque and suspended in RPMI medium supplemented with 10% fetal bovine serum, L-glutamine (2 mM), and nonessential amino acids (100 μM) at a density of 2 million cells/ml. Normal CD19+ B cells were pooled from healthy individuals between 26 and 32 years of age, in accordance with IRB-approval (as above). Mononuclear cells were separated by Ficoll-Hypaque centrifugation, and further isolation of B and T cells was achieved by magnetic separation using CD19 microbeads (Miltenyi Biotec, Bergisch Gladbach, Germany).
Apoptosis was quantified according to apoptotic nuclear morphology and by detection of phosphatidylserine exposure on the plasma membrane. […] Images were obtained using a chargecoupled device camera (Hamamatsu Photonics, Shizuoka, Japan) and digitally converted by Simple PCI software (Hamamatsu Photonics). Membrane translocation of phosphatidylserine was detected by Annexin V staining. Annexin V-positive cells were assessed by flow cytometry using an ARIA flow cytometer (Beckman Coulter, Pasadena, Calif., USA). All flow cytometry data were analyzed using FlowJo 8.8.4 for Macintosh (Treestar, Ashland, Oreg., USA). Dead cells were identified according to their inability to exclude trypan blue dye or propidium iodide. Trypan blue dye uptake into cells was detected by light microscopy using a 40× objective and quantified by counting up to 400 cells. Propidium iodide uptake was quantified by flow cytometry in association with the Annexin V measurement described above.

primary CLL cells [4] = assay: Single cell digital imaging of intracellular Ca2+ (Fura-2); format: cell-based, human; conditions: 10 μM peptide
From the text: Lymphocytes were freshly separated from heparinized peripheral blood obtained from normal adult volunteers or adult patients with chronic lymphocytic leukemia (CLL) meeting standard diagnostic guidelines. Patients had either never received treatment or had received treatment over two years prior to obtaining samples. We conformed to all guidelines and regulations in accordance with Internal Review Board protocols ICC2902/11-02-28 (Case Western Reserve University Cancer Center/University Hospitals of Cleveland Ireland Cancer Center). Cells were separated by centrifugation through Ficoll-Hypaque and suspended in RPMI medium supplemented with 10% fetal bovine serum, L-glutamine (2 mM), and nonessential amino acids (100 μM) at a density of 2 million cells/ml. Normal CD19+ B cells were pooled from healthy individuals between 26 and 32 years of age, in accordance with IRB-approval (as above). Mononuclear cells were separated by Ficoll-Hypaque centrifugation, and further isolation of B and T cells was achieved by magnetic separation using CD19 microbeads (Miltenyi Biotec, Bergisch Gladbach, Germany).
(§2) Methods of Ca^2+ imaging, described in detail previously, were employed here with only minor modification. Briefly, cells adhered to poly-L-lysine-coated coverslips (35-mm coverslip dishes, MatTek Corp., Ashland, Mass.) were loaded with 1 μM Fura-2 AM for 45 min at 25° C. in extracellular buffer (ECB) (130 mM NaCl, 5 mM KCl, 1.5 mM CaCl2, 1 mM MgCl2, 25 mM Hepes, pH 7.5, 1 mg/ml BSA, and 5 mM glucose). The buffer was replaced with fresh ECB and the incubation continued for […] at 25° C. to permit de-esterification. Culture dishes were mounted on the non-heated stage of an inverted microscope (Olympus CKX41) equipped with a 20× Fluor objective. Excitation light was alternated between 340 and 380 nm by a filter wheel (Sutter Instrument Co.), with 0.8 sec and 0.2 sec exposure times respectively, and emitted light was filtered at >510 nm and collected with an intensified charge-coupled device camera (Cooke 12 bit VGA). The video signal was digitized using InCyt Im2 software (Intracellular Imaging) and subsequently processed using Microsoft Excel. To determine Rmin cells were perfused with ECB deficient in Ca^2+ and supplemented with 4 mM EGTA and 10 μM ionomycin. Rmax was obtained by perfusing cells with ECB supplemented with 4 mM CaCl2 and 10 μM ionomycin. […] In most experiments peptides were fused with the cell penetrating peptide of HIV TAT to facilitate uptake by cells. In some experiments peptides, without linkage to TAT, were delivered into cells using Chariot reagent (Active Motif) as previously described. Xestospongin C (Enzo Life Sciences International) and U73122 (Sigma), both dissolved in DMSO, were added to cells […] prior to Ca^2+ measurements.

RS11846 cells = assay: as above; format: cell-based, human; conditions: RS11846, FIG. 6
Description: (§3) WEHI7.2 cells were cultured in DMEM supplemented with 10% fetal calf serum, L-glutamine (2 mM), and nonessential amino acids (100 μM). Transfections of WEHI7.2 cells with expression vectors encoding wild type Bcl-2 and Bcl-2RS/GG were described previously. Jurkat cells and RS11846 cells were cultured in RPMI medium supplemented with 10% fetal bovine serum, L-glutamine (2 mM), and nonessential amino acids (100 μM). Cells were maintained in 5% carbon dioxide at high humidity.
as §2

Jurkat cells = assay: as above; format: cell-based, human; conditions: 10 μM peptide, Jurkat, FIG. 5
Description: as §3, §2

T1 sequence (P10415 whole entry): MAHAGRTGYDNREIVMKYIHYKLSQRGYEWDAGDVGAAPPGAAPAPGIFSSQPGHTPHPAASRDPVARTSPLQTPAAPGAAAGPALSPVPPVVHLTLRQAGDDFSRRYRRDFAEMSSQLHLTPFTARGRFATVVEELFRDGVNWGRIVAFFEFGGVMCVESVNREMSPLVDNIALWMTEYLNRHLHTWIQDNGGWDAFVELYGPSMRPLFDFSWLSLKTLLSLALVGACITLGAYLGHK
Chain of Bcl-2 (P10415 whole entry, species assumed): as the sequence (P10415 whole entry) above

disruption of Bcl-2-IP3R interaction (Bcl-2-IP3R interaction) | interaction with Bcl-2 (Bcl-2) | Substance | effect on Bcl-2-imposed inhibition of IP3-induced 45Ca2+ efflux from the ER [1] | killing of multiple myeloma cells (multiple myeloma cells) | induction of Ca2+ oscillations (wild type DT40 cells) | induction of Ca2+ oscillations compared with wild type DT40 [2] | apoptosis induction in CLL cells (primary CLL cells [3]; 10 μM peptide, Figs. 12-15) | sensitivity of CLL cells to apoptosis induction relative to normal peripheral blood lymphocytes (primary CLL cells [3]; propidium iodide exclusion by flow cytometry, FIG. 16) | CLL cells with one or two high amplitude spikes associated with prolonged basal Ca2+ elevation (primary CLL cells [4]; 90 min) [%] | CLL cells with prolonged Ca2+ oscillations without baseline Ca2+ elevation (primary CLL cells [4]; 90 min) [%] | CLL cells with relatively brief burst of Ca2+ oscillations associated with prolonged basal Ca2+ elevation (primary CLL cells [4]; 90 min) [%] | amplitude of Ca2+ peaks compared to TAT-IDP (primary CLL cells [4]; FIG. 10) | CLL cells with Ca2+ elevation (primary CLL cells [4]; recordings typically 90 min, FIG. 9) [%] | activity (Ca2+ oscillations) compared to TAT-IDP (RS11846 cells) | amplitude and frequency of Ca2+ oscillations compared with TAT-IDP (Jurkat cells)
confirmed | documented | NVYTEIKCNSLLPLAAIVRV (listed as Homo sapiens) [IDPDD/AA, IDP with DD/AA substitution, without TAT] | reversed | – | – | – | – | – | – | – | – | – | – | – | –
– | – | TAT-IDPDD/AA: TAT-IDP analogue; DD/AA substitution eliminates the predicted aspartyl protease cleavage site (RKKRRQRRRGGNVYTEIKCNSLLPLAAIVRV) | – | kills multiple myeloma cells | induced Ca^2+ oscillations | significantly less | substantial apoptosis | over 6 fold | 28±5 | 6±2 | 17±4 | significantly higher | 51 ±5 | increased activity | much higher
